# In patent publication US20130090333A1, “BENZOXAZINE DERIVATIVES AS CRAC MODULATORS” (Hoffmann-La Roche Inc., priority 2011, published 2013):
# System: IL-2 production in Jurkat cell (ATCC)
# Experiment: Jurkat IL-2 Production Assay
# Assay type: cell-based
# Details: Homo sapiens, Jurkat cells, 18-20 h incubation, serum/stimulant variant (1% FBS/PHA or 30% FBS/PMA+ionomycin) not given
# Procedure: Jurkat IL-2 Production Assay Cell: Jurkat cell (ATCC) was grown in RPMI 1640 with 10% FBS and 1% penicillin/streptomycin. The cell density was kept at 1.2˜1.8×10^6/mL in culture flask before seeding into culture plate, and the cell density in the plate was 0.5×10^6/2004/well. Culture Media: RPMI 1640 with 1% FBS or 30% FBS for high serum assay. Test Compound: Serial dilution was done in 100% DMSO, and intermediate dilution was done with RPMI 1640 medium with 1% FBS. The DMSO final concentration in culture well was 0.25%. Stimulant: PHA (Sigma#L9017-10MG) was used for the assay with 1% FBS in culture medium, and added after 10 minutes exposure of cell to compound/DMSO. The PHA final concentration in culture well was 5 μg/mL. PMA (Sigma# P-8139 5MG)/Ionomycin (Sigma# I0634-5MG) was used for the assay with 30% FBS in culture medium, and added at same time point as the 1% FBS culture assay. The final concentration of PMA was 50 ng/mL, and Ionomycin final concentration was 500 ng/mL. Incubation: At 37° C. with 5% CO2 and 95% humidity for 18 h˜20 h. IC50: IC50 was calculated with the data analysis software XLfit4, General Pharmacology model 251.
row,Molecule,IC50 [nM]
1,"Cc1cc(C(F)(F)F)ccc1-c1ccc2c(c1)OCC(c1c(F)cccc1F)N2 (stereo not drawn) [Example 1, 3-(2,6-Difluoro-phenyl)-7-(2-methyl-4-trifluoromethyl-phenyl)-3,4-dihydro-2H-benzo[1,4]oxazine]",120
2,"Cc1ccc(C(F)(F)F)cc1-c1ccc2c(c1)OCC(c1c(F)cccc1F)N2 (stereo not drawn) [Example 4, 3-(2,6-difluoro-phenyl)-7-(2-methyl-5-trifluoromethyl-phenyl)-3,4-dihydro-2H-benzo[1,4]oxazine]",100
3,"Cn1nc(C(F)(F)F)cc1-c1ccc2c(c1)OCC(c1c(F)cccc1F)N2 (stereo not drawn) [Example 5, 3-(2,6-Difluoro-phenyl)-7-(2-methyl-5-trifluoromethyl-2H-pyrazol-3-yl)-3,4-dihydro-2H-benzo[1,4]oxazine]",100
4,"CCn1nc(-c2cnccn2)cc1-c1ccc2c(c1)OCC(c1c(F)cccc1F)N2 (stereo not drawn) [Example 8, 3-(2,6-Difluoro-phenyl)-7-(2-ethyl-5-pyrazin-2-yl-2H-pyrazol-3-yl)-3,4-dihydro-2H-benzo[1,4]oxazine]",110
5,"Cn1nc(-c2cccnc2)nc1-c1ccc2c(c1)OCC(c1c(F)cccc1F)N2 (stereo not drawn) [Example 9, 3-(2,6-Difluoro-phenyl)-7-(2-methyl-5-pyridin-3-yl-2H-[1,2,4]triazol-3-yl)-3,4-dihydro-2H-benzo[1,4]oxazine]",310
6,"CCn1nc(-c2cccnc2)nc1-c1ccc2c(c1)OCC(c1c(F)cccc1F)N2 (stereo not drawn) [Example 10, 3-(2,6-Difluoro-phenyl)-7-(2-ethyl-5-pyridin-3-yl-2H-[1,2,4]triazol-3-yl)-3,4-dihydro-2H-benzo[1,4]oxazine]",90
7,"Cc1sc(-c2ccccn2)nc1-c1ccc2c(c1)OCC(c1c(F)cccc1F)N2 (stereo not drawn) [Example 11, 3-(2,6-Difluoro-phenyl)-7-(5-methyl-2-pyridin-2-yl-thiazol-4-yl)-3,4-dihydro-2H-benzo[1,4]oxazine]",120
8,"Cc1sc(-c2cnccn2)nc1-c1ccc2c(c1)OCC(c1c(F)cccc1F)N2 (stereo not drawn) [Example 15, 3-(2,6-difluorophenyl)-7-(5-methyl-2-(pyrazin-2-yl)thiazol-4-yl)-3,4-dihydro-2H-benzo[b][1,4]oxazine]",60
9,"COc1cc(C)c(-c2ccc3c(c2)OCC(c2c(F)cccc2F)N3)cn1 (stereo not drawn) [Example 21, 3-(2,6-Difluoro-phenyl)-7-(6-methoxy-4-methyl-pyridin-3-yl)-3,4-dihydro-2H-benzo[1,4]oxazine]",280
10,"CCS(=O)(=O)c1cc(C)c(-c2ccc3c(c2)OCC(c2c(F)cccc2F)N3)cn1 (stereo not drawn) [Example 22, 3-(2,6-difluorophenyl)-7-(6-(ethylsulfonyl)-4-methylpyridin-3-yl)-3,4-dihydro-2H-benzo[b][1,4]oxazine]",90
11,"Cc1cc(Cl)ncc1-c1ccc2c(c1)OCC(c1c(F)cccc1F)N2 (stereo not drawn) [Example 23, 7-(6-Chloro-4-methyl-pyridin-3-yl)-3-(2,6-difluoro-phenyl)-3,4-dihydro-2H-benzo[1,4]oxazine]",320
12,"Cc1cc(-c2ncco2)ncc1-c1ccc2c(c1)OCC(c1c(F)cccc1F)N2 (stereo not drawn) [Example 24, 3-(2,6-Difluoro-phenyl)-7-(4-methyl-6-oxazol-2-yl-pyridin-3-yl)-3,4-dihydro-2H-benzo[1,4]oxazine]",340
13,"Cc1cc(-c2cnc(N)nc2)ncc1-c1ccc2c(c1)OCC(c1c(F)cccc1F)N2 (stereo not drawn) [Example 25, 5-(5-(3-(2,6-difluorophenyl)-3,4-dihydro-2H-benzo[b][1,4]oxazin-7-yl)-4-methylpyridin-2-yl)pyrimidin-2-amine]",660
14,"Cc1ncc(-c2cc(C)c(-c3ccc4c(c3)OCC(c3c(F)cccc3F)N4)cn2)s1 (stereo not drawn) [Example 26, 3-(2,6-difluorophenyl)-7-(4-methyl-6-(2-methylthiazol-5-yl)pyridin-3-yl)-3,4-dihydro-2H-benzo[b][1,4]oxazine]",210
15,"Cc1cc(-c2nnn(C)n2)ncc1-c1ccc2c(c1)OCC(c1c(F)cccc1F)N2 (stereo not drawn) [Example 27, 3-(2,6-difluorophenyl)-7-(4-methyl-6-(2-methyl-2H-tetrazol-5-yl)pyridin-3-yl)-3,4-dihydro-2H-benzo[b][1,4]oxazine]",670
16,"Cc1ccc(C(F)(F)F)cc1-c1ccc2c(c1)OCC(c1c(F)cccc1Cl)N2 (stereo not drawn) [Example 30, 3-(2-Chloro-6-fluoro-phenyl)-7-(2-methyl-5-trifluoromethyl-phenyl)-3,4-dihydro-2H-benzo[1,4]oxazine]",220
17,"COc1cc(C)c(-c2ccc3c(c2)OCC(c2c(F)cccc2Cl)N3)cn1 (stereo not drawn) [Example 33, 3-(2-Chloro-6-fluoro-phenyl)-7-(6-methoxy-4-methyl-pyridin-3-yl)-3,4-dihydro-2H-benzo[1,4]oxazine]",380
18,"Cn1nc(C(F)(F)F)cc1-c1ccc2c(c1)OCC(c1ccccc1Cl)N2 (stereo not drawn) [Example 34, 3-(2-chlorophenyl)-7-(1-methyl-3-(trifluoromethyl)-1H-pyrazol-5-yl)-3,4-dihydro-2H-benzo[b][1,4]oxazine]",350
19,"COc1cc(C)c(-c2ccc3c(c2)OCC(c2ccccc2Cl)N3)cn1 (stereo not drawn) [Example 35, 3-(2-chlorophenyl)-7-(6-methoxy-4-methylpyridin-3-yl)-3,4-dihydro-2H-benzo[b][1,4]oxazine]",730
20,"Cc1sc(-c2cccnc2)nc1-c1ccc2c(c1)OCC(c1ccccc1Cl)N2 (stereo not drawn) [Example 36, 3-(2-chlorophenyl)-7-(5-methyl-2-(pyridin-3-yl)thiazol-4-yl)-3,4-dihydro-2H-benzo[b][1,4]oxazine]",90
21,"CCc1sc(-c2cnccn2)nc1-c1ccc2c(c1)OCC(c1ccccc1Cl)N2 (stereo not drawn) [Example 37, 3-(2-chlorophenyl)-7-(5-ethyl-2-(pyrazin-2-yl)thiazol-4-yl)-3,4-dihydro-2H-benzo[b][1,4]oxazine]",70

# Same assay, conditions: Jurkat cells, 18-20 h incubation, serum/stimulant variant (1% FBS/PHA or 30% FBS/PMA+ionomycin) not given
row,Molecule,IC50 [nM]
1,"(S)-3-(2,6-Difluoro-phenyl)-7-(2-methyl-4-trifluoromethyl-phenyl)-3,4-dihydro-2H-benzo[1,4]oxazine or (R)-3-(2,6-Difluoro-phenyl)-7-(2-methyl-4-trifluoromethyl-phenyl)-3,4-dihydro-2H-benzo[1,4]oxazine [Example 3]",350

# System: T cell IL-2 production in human whole blood
# Experiment: Human Whole Blood Assay (inhibition of T cell IL-2 production)
# Assay type: cell-based
# Details: T-cell, 10 μM Thapsigargin overnight, plasma IL-2 by AlphaLISA, read-out: HWB
# Procedure: Inhibition of T cell IL-2 production CRAC compounds were tested in human whole blood from normal donors. 200 μl of human whole blood was aliquoted into each well of a round bottom 96 well plate. Concentration-response curves were generated for test compounds and CsA (as controls) by performing serial dilutions of the compounds and incubating each concentration in a single well for 30 min (experiment was performed in triplicate). Following incubation, the blood was stimulated with 10 μM Thapsigargin (SIGMA) overnight at 37° C. IL-2 concentrations in the plasma were determined by AlphaLISA IL-2 assay (Perkin Elmer). Data analysis was performed using GraphPad PRISMS.
row,Molecule,IC50 [nM]
1,"Cc1ccc(C(F)(F)F)cc1-c1ccc2c(c1)OCC(c1c(F)cccc1F)N2 (stereo not drawn) [Example 4, 3-(2,6-difluoro-phenyl)-7-(2-methyl-5-trifluoromethyl-phenyl)-3,4-dihydro-2H-benzo[1,4]oxazine]",3220
2,"Cn1nc(C(F)(F)F)cc1-c1ccc2c(c1)OCC(c1c(F)cccc1F)N2 (stereo not drawn) [Example 5, 3-(2,6-Difluoro-phenyl)-7-(2-methyl-5-trifluoromethyl-2H-pyrazol-3-yl)-3,4-dihydro-2H-benzo[1,4]oxazine]",910
3,"CCn1nc(-c2cccnc2)nc1-c1ccc2c(c1)OCC(c1c(F)cccc1F)N2 (stereo not drawn) [Example 10, 3-(2,6-Difluoro-phenyl)-7-(2-ethyl-5-pyridin-3-yl-2H-[1,2,4]triazol-3-yl)-3,4-dihydro-2H-benzo[1,4]oxazine]",510
4,"Cc1sc(-c2ccccn2)nc1-c1ccc2c(c1)OCC(c1c(F)cccc1F)N2 (stereo not drawn) [Example 11, 3-(2,6-Difluoro-phenyl)-7-(5-methyl-2-pyridin-2-yl-thiazol-4-yl)-3,4-dihydro-2H-benzo[1,4]oxazine]",1820
5,"CCc1sc(-c2ccccn2)nc1-c1ccc2c(c1)OCC(c1c(F)cccc1F)N2 (stereo not drawn) [Example 13, 3-(2,6-Difluoro-phenyl)-7-(5-ethyl-2-pyridin-2-yl-thiazol-4-yl)-3,4-dihydro-2H-benzo[1,4]oxazine]",1940
6,"CCc1cc(-c2nc(-c3ccc4c(c3)OCC(c3c(F)cccc3F)N4)c(CC)s2)ccn1 (stereo not drawn) [Example 18, 3-(2,6-Difluoro-phenyl)-7-[5-ethyl-2-(2-ethyl-pyridin-4-yl)-thiazol-4-yl]-3,4-dihydro-2H-benzo[1,4]oxazine]",6150
7,"CCc1sc(-c2ncco2)nc1-c1ccc2c(c1)OCC(c1c(F)cccc1F)N2 (stereo not drawn) [Example 19, 3-(2,6-Difluoro-phenyl)-7-(5-ethyl-2-oxazol-2-yl-thiazol-4-yl)-3,4-dihydro-2H-benzo[1,4]oxazine]",650
8,"Cc1ccc(-c2ncco2)cc1-c1ccc2c(c1)OCC(c1c(F)cccc1F)N2 (stereo not drawn) [Example 28, 3-(2,6-Difluoro-phenyl)-7-(2-methyl-5-oxazol-2-yl-phenyl)-3,4-dihydro-2H-benzo[1,4]oxazine]",1000
